Test results published in publication PMC11279404, “Discovery of 1H-benzo[d]imidazole-(halogenated)Benzylidenebenzohydrazide Hybrids as Potential Multi-Kinase Inhibitors” (Pharmaceuticals, 2024).

Columns and labels:
[1] = test system: cancer cell lines (HCT-116, HepG2, MCF-7); assay: MTT in vitro cytotoxicity, summary across the cancer cell line panel; format: cell-based; settings: Homo sapiens; summary over HCT-116, HepG2, MCF-7; read-out: IC50 values across the tested cancer cell lines
Procedure: The cytotoxic activities of compounds 6a-l were assessed using a standard MTT method, which was performed across three different cancer cell line models, namely human colon cancer (HCT-116), hepatocellular carcinoma (HepG2), mammary gland cancer (MCF-7), and normal (WI-38) cell lines. […] […]. Substitution at the 4-position, as in the case of compounds 6d, 6g, and 6j, also seems beneficial, with fluoro (6j) showing the best results. […]. Overall, the cytotoxicity data provide valuable insights into the structure–activity relationships of the synthesized compounds and can guide further optimization efforts to develop potential anticancer agents with improved potency and selectivity.
. The SI values represent the ratio of the IC50 values for the normal WI-38 cell line compared with the respective cancer cell lines, with higher SI values indicating greater selectivity for the cancer cells over normal cells. […]. The cytotoxic potential of compounds 6a-l was evaluated against a panel of cancer cell lines, including HCT-116, HepG2, and MCF-7, as well as a normal cell line, WI-38, using the reported methodology. The cell lines utilized in this study were obtained from the American Type Culture Collection (ATCC) through the Holding Company for Biological Products and Vaccines (VACSERA) in Cairo, Egypt. These included: 1. A human colon cancer cell line (HCT-116); 2. Hepatocellular carcinoma (HepG2)—a liver cancer cell line; 3. Mammary gland breast cancer (MCF-7); and 4. A human lung fibroblast (WI-38)—a normal cell line.

CDK2 = CDK2 (Homo sapiens, UniProt P24941); assay: In vitro protein kinase inhibition, CDK2
HepG2 cells [2] = assay: Cell cycle analysis (propidium iodide flow cytometry); format: cell-based, human
Excerpt: Following the treatment, the cells were stained with propidium iodide and analyzed using flow cytometry to determine the cell cycle phase distribution. […] The quantitative data further substantiated this observation. […] It led to a marked accumulation of cells in the G1 phase, accompanied by a concomitant reduction in the proportion of cells in the S and G2/M phases. The cell cycle arrest effect observed with compound 6i may be a key mechanistic aspect contributing to its anticancer potential. The observed cell cycle arrest at the G1 phase is a common mechanism of action for many anti-cancer agents, as it can prevent cell division and proliferation, ultimately leading to cell cycle arrest and potentially inducing apoptosis or other forms of cell death.
The cell cycle distribution index (CDI) is a metric that quantifies the rate of cell proliferation, calculated as CDI = (G2/M + S)/[…], where the values represent the percentages of cells in each phase. In this study, the CDI values for the control and compound 6i-treated HepG2 cells were 0.91 and 0.39, respectively. […] Compound 6i was further evaluated for apoptosis analysis in HepG2 cell lines.

EGFR = EGFR (Homo sapiens, UniProt P00533); assay: In vitro protein kinase inhibition, EGFR
EGFR, sequence (P00533 25-1210): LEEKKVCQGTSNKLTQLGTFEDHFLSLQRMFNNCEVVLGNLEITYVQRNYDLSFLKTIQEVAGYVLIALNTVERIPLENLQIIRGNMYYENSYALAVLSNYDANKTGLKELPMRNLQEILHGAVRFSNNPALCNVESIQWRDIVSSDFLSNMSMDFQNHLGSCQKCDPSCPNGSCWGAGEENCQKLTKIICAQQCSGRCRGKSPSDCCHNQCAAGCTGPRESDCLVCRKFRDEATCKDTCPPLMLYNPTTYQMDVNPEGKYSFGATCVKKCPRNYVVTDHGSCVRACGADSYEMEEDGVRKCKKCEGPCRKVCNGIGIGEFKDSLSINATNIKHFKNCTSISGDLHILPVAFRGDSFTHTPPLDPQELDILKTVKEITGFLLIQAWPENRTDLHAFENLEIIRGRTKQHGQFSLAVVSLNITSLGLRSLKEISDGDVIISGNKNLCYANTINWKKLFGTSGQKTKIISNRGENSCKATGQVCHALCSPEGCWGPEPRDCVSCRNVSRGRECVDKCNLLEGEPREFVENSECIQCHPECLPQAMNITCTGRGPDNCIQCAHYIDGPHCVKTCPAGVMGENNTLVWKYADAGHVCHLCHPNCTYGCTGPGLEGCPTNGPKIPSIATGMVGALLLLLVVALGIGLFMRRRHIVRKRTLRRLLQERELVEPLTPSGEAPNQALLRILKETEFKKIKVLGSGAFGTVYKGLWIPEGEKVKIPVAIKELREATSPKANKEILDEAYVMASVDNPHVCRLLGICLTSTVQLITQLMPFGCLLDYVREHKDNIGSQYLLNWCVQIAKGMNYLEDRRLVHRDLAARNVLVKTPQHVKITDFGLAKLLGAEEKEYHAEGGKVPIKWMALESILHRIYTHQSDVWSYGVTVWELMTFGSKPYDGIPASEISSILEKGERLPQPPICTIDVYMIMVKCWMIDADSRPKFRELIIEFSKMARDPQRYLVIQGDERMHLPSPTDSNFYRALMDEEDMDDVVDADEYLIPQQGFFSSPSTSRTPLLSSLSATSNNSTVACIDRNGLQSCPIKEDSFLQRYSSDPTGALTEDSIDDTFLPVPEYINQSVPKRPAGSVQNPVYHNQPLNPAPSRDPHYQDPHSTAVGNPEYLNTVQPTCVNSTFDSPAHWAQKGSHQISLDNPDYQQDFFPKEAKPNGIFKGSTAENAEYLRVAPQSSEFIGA

[3] = test system: MCF-7 (mammary gland breast cancer cell line); assay: MTT in vitro cytotoxicity, MCF-7; format: cell-based, human
HDAC1 = HDAC1 (Homo sapiens, UniProt Q13547); assay: In vitro enzyme inhibition, HDAC1; format: biochemical; settings: mean ± SD of triplicate; read-out: In Vitro Protein Kinase Inhibition IC50 HDAC1
HDAC1, sequence (Q13547 whole entry): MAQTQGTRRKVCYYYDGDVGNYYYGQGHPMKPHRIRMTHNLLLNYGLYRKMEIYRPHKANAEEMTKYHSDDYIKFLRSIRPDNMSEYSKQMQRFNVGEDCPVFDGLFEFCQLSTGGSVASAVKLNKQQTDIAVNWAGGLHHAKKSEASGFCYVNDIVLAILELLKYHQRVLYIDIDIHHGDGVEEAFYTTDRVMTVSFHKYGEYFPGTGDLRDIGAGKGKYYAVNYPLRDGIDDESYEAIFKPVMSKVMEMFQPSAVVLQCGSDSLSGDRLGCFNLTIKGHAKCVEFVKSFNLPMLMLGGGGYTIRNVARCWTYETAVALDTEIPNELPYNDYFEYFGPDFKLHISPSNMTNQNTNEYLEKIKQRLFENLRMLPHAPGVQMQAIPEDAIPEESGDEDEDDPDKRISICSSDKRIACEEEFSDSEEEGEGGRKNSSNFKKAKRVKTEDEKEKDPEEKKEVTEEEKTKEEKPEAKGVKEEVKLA

[4] = test system: HCT-116 (human colon cancer cell line); assay: MTT in vitro cytotoxicity, HCT-116; format: cell-based
caspase-3 = assay: Apoptotic protein level by ELISA, caspase-3; format: cell-based, human; settings: HepG2 cells, ELISA; control 99.904 ± 3.88; mean ± SD of triplicate
Procedure: (§1) To further elucidate the mechanism by which compound 6i induces cell death, the expression levels of key apoptotic proteins were assessed in the HepG2 cell line. […] Specifically, the levels of the pro-apoptotic proteins caspase-3 and Bax were markedly higher in the compound 6i-treated group compared with the control. […] Additional studies are warranted to elucidate the detailed molecular mechanisms underlying the apoptosis-inducing effects of compound 6i and to assess its therapeutic potential in relevant in vivo models.
(§2) Apoptotic protein levels for compound 6i were determined using an ELISA technique for caspase-3, BAX, and Bcl-2, applying a previously reported method.

[5] = MTT in vitro cytotoxicity, normal WI-38; format: cell-based; settings: human, WI-38 normal lung fibroblast cells, normal cell line, mean ± SD of triplicate
[6] = test system: HepG2 (hepatocellular carcinoma cell line); assay: MTT in vitro cytotoxicity, HepG2; format: cell-based, human
AURKC = target: T1, AURKC (Homo sapiens, UniProt Q9UQB9); assay: In vitro protein kinase inhibition, AURKC
T1 sequence (Q9UQB9 1-309): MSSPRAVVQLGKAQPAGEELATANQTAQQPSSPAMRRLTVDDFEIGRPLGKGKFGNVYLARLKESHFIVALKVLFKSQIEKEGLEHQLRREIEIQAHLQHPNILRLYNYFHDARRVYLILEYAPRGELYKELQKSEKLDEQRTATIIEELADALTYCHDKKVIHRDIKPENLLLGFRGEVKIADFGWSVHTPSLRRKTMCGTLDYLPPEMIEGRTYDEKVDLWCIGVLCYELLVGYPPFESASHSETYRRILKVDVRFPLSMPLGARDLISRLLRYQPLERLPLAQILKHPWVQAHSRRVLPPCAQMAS

HepG2 cells [7] = assay: Annexin-V/propidium iodide double staining apoptosis assay; format: cell-based, human; settings: HepG2 cells treated at IC50 concentration for 24 h
Procedure: To investigate the mode of cell death induced by the synthesized compound 6i, flow cytometry analysis was performed. […] Following the treatment, the cells were double-stained with Annexin V and propidium iodide (PI) to assess the levels of apoptosis and necrosis. The data presented in Table 4 reveal a significant decline in the percentage of viable cells in the compound 6i-treated group (63.93%) compared with the untreated control group (97.58%). […] Additionally, in the late stages of apoptosis, the percentage of apoptotic cells rose from 0.21% in the control group to 9.98% in the compound 6i-treated group. […] The apoptosis levels in the control HepG2 cell lines and the cells treated with compound 6i are shown in the graphical representation provided in Figure 3.
The apoptosis effect of compound 6i was studied using a previously reported method.

Her2 = Her2 (Homo sapiens, UniProt P04626); assay: In vitro protein kinase inhibition, Her2
Her2, sequence (P04626 23-1255): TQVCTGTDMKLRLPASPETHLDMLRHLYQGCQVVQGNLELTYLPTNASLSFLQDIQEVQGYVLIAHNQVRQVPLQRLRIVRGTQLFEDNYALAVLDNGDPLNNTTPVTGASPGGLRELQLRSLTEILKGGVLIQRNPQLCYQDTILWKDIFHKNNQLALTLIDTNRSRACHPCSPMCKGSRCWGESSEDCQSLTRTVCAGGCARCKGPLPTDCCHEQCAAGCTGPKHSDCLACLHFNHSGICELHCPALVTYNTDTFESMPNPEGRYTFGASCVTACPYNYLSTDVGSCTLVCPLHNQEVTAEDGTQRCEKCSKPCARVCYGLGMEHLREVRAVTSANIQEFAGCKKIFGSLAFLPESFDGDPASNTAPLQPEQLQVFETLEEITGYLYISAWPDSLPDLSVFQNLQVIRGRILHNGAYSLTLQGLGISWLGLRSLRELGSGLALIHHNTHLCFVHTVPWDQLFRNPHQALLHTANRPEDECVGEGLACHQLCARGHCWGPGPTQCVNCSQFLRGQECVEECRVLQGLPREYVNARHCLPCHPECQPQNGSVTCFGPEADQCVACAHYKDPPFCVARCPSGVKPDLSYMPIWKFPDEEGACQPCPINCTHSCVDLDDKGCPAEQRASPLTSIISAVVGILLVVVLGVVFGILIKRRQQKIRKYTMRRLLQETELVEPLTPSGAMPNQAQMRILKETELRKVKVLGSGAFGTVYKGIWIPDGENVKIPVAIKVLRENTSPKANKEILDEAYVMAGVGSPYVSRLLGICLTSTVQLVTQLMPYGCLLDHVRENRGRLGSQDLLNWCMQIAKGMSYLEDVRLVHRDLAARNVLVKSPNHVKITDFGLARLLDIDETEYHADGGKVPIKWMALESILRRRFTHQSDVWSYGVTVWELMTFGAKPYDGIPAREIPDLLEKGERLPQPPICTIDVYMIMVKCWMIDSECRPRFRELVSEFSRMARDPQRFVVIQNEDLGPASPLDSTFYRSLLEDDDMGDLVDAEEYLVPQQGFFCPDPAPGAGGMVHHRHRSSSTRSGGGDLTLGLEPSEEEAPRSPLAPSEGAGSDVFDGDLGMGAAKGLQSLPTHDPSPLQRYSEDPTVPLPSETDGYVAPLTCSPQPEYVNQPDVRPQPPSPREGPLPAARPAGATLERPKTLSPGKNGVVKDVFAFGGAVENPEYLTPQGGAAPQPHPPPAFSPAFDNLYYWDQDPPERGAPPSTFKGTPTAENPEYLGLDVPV

mTOR = mTOR (Homo sapiens, UniProt P42345); assay: In vitro enzyme inhibition, mTOR
Bax = assay: Apoptotic protein level by ELISA, Bax; format: cell-based, human; settings: HepG2 cells
Procedure: as §1, §2

Bcl-2 = assay: Apoptotic protein level by ELISA, Bcl-2; format: cell-based, human; settings: HepG2 cells
VEGFR2 = VEGFR2 (Homo sapiens, UniProt P35968); assay: In vitro protein kinase inhibition, VEGFR2; format: biochemical; settings: mean ± SD of triplicate
VEGFR2, sequence (P35968 20-1356): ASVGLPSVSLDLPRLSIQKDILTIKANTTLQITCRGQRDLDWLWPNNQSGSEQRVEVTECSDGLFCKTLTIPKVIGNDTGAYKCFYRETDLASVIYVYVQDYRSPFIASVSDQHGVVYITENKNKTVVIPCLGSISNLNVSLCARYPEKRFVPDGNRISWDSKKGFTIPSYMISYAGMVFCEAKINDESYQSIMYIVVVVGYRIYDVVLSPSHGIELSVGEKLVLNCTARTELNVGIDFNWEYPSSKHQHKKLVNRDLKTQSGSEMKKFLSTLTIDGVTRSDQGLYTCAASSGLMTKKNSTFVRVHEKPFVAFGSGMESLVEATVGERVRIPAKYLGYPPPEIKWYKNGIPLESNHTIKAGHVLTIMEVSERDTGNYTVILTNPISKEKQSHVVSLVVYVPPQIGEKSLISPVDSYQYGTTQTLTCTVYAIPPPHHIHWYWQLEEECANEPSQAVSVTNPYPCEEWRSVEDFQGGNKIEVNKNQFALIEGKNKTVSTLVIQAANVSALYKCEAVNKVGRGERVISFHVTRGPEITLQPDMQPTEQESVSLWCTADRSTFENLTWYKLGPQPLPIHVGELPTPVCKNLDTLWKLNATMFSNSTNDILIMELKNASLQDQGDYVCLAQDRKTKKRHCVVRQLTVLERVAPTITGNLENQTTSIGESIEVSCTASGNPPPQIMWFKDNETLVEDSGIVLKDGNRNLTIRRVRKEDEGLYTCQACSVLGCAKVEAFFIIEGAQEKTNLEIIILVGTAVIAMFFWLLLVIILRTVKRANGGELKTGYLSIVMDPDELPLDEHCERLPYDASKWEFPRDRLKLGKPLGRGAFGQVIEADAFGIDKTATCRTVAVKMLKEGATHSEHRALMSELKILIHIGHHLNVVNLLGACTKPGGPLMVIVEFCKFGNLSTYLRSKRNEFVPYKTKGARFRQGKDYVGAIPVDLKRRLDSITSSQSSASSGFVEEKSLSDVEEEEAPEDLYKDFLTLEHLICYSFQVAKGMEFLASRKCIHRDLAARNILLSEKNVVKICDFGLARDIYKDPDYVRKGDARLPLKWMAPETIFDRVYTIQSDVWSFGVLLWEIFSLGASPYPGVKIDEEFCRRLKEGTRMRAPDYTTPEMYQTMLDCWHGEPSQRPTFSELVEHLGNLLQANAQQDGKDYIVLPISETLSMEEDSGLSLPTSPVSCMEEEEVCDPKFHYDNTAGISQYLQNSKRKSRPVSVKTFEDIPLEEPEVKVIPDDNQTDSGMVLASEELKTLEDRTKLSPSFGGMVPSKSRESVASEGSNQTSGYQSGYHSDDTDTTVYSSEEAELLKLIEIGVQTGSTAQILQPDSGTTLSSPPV
Excerpt: […]. […] […].

## O=C(N/N=C/c1cccc(F)c1)c1ccc(NCc2nc3ccccc3[nH]2)cc1 [6i, (E)-4-(((1H-benzo[d]imidazol-2-yl)methyl)amino)-N′-(3-fluorobenzylidene)benzohydrazide]
[1]
  IC50: 7820 to 10200 nM
CDK2
  IC50: 364 ± 0.011 nM
HepG2 cells [2]; CDI = (G2/M + S)/(G0-G1), HepG2, IC50 concentration, 24 h, control 0.91
  Cell Cycle Distribution Index (CDI): 0.39
HepG2 cells [2]; HepG2 cells treated at IC50 concentration for 24 h, control 12.84
  DNA Content (%) %G2/M: 2.68%
HepG2 cells [2]; HepG2 cells treated at IC50 concentration for 24 h, control 34.77
  DNA Content (%) %S: 25.19%
HepG2 cells [2]; HepG2 cells treated at IC50 concentration for 24 h, control 52.39
  DNA Content (%) %G0-G1: 72.13%
EGFR
  IC50: 30.1 ± 0.03 nM
[3]; Homo sapiens, MCF7, MTT, mean ± SD of triplicate
  IC50: 11600 ± 900 nM
[3]; IC50 of WI-38 / IC50 of MCF-7
  SI (Selectivity Index) MCF-7: 4.85
HDAC1
  IC50: 96.6 ± 0.003 nM
[4]; Homo sapiens, HCT-116, MTT, mean ± SD of triplicate
  IC50: 13400 ± 1200 nM
[4]; IC50 of WI-38 / IC50 of HCT-116
  SI (Selectivity Index) HCT-116: 4.20
caspase-3
  Protein Expression Caspase-3: 388.497 ± 15.09 pg/mL
[5]
  IC50: 56500 ± 3000 nM
[6]; Homo sapiens, HepG2, MTT, mean ± SD of triplicate
  IC50: 9390 ± 800 nM
[6]; IC50 of WI-38 / IC50 of HepG2
  SI (Selectivity Index) HepG2: 6.01
AURKC
  IC50: 74.5 ± 0.003 nM
HepG2 cells [7]; control 0.21
  Apoptosis Late: 9.98%
HepG2 cells [7]; control 0.61
  Apoptosis Early: 22.07%
HepG2 cells [7]; control 1.6
  Necrosis: 4.02%
HepG2 cells [7]; control 97.58
  Alive Cell (%): 63.93%
Her2
  IC50: 28.3 ± 0.001 nM
mTOR
  IC50: 152 ± 0.005 nM
Bax; ELISA, control 71.075 ± 2.762, mean ± SD of triplicate
  Protein Expression Bax: 513.731 ± 19.96 pg/mL
Bax; relative to control (1)
  Protein Expression Bax (Folds): 7.22 Folds
Bcl-2
  Bcl-2 level, fold lower compared with the control: 7.5 fold
Bcl-2; ELISA, control 15.668 ± 0.53, mean ± SD of triplicate
  Protein Expression Bcl-2: 2.073 ± 0.07 pg/mL
Bcl-2; relative to control (1)
  Protein Expression Bcl-2 (Folds): 0.132 Folds
VEGFR2
  IC50: 172.2 ± 0.006 nM
